The values that follow come from patent US20050234113A1, “Antioxidant and radical scavenging activity of synthetic analogs of desferrithiocin” (University of Florida Research Foundation, Inc., priority 2002, published 2005).

Entries after “also recorded” stand apart in the source; their conditions may differ. Marks after values point to notes of the source that are not given here.

Experiment [1] can be described thus: Quenching of the ABTS radical cation. The following applies: Table 5; 6-min reaction, initial OD 1.000.
A short description of experiment [2]: Quenching of the ABTS radical cation. The method, then:
The iron chelators were tested for their ability to quench the radical cation formed from 2,2′-azinobis(3-ethylbenzothiazoline-6-sulfonic acid) (ABTS) by the method of Re et al. in Free Radic. Biol. Med. 26, 1231-1237 (1999). Briefly, a stock solution of ABTS radical cation was generated by mixing ABTS (10 mM, 2.10 mL) with K2S2O8 (8.17 mM, 0.90 mL) in H2O and […] deep blue-green ABTS radical cation was diluted in sufficient sodium phosphate (10 mM, pH 7.4) to give an A734 of about 0.900. Test compounds were added to a final concentration ranging from 1.25 to 15 μM, and the decrease in A734 was read after 1, 2, 4 and 6 min. The reaction was largely complete by 1 min, but the data presented are based on a 6-min reaction time.
In this assay, a fairly stable radical cation, ABTS^+, was examined, and Trolox, an analog of vitamin E, was used as a positive control. Briefly, the procedure involved generating the blue-green chromophore by the reaction of ABTS with K2S2O8. The radical has absorption maxima at λ=415, 645, 734, and 815 nm. The change in absorbance at 734 nm was noted 6 min after addition of the chelator of interest at various concentrations, and the slope of the ΔA734 vs. ligand concentration line was calculated.
The iron chelators were tested for their ability to quench the radical cation formed from 2,2′-azinobis(3-ethylbenzothiazoline-6-sulfonic acid) (ABTS) by a published method (Re, R., et al., Free Radical Biol. Med. 26:1231-1237 (1999). Briefly, a stock solution of ABTS radical cation was generated by mixing ABTS (10 mM, 2.10 mL) with K2S2O8 (8.17 mM, 0.90 mL) in H2O and allowing the solution to sit in the dark at room temperature for 18 hours. This stock solution of deep blue-green ABTS radical cation was diluted in sufficient sodium phosphate (10 mM, pH 7.4) to give an A734 of about 0.900. Test compounds were added to a final concentration ranging from 1.25 to 15 μM, and the decrease in A734 was read after 1, 2, 4 and 6 min. The reaction was largely complete by 1 min, but the data presented are based on a 6-min. reaction time.
This radical cation decolorization assay utilizes the pre-formed radical monocation of 2,2′-azinobis(3-ethylbenzothiazoline-6-sulfonic acid) (ABTS) and has been used to evaluate the antioxidant capacity of a large number of compounds and mixtures. Briefly, the change in absorbance of the blue-green chromophore was recorded after the addition of the chelator of interest at each of the different concentrations, and the slope of the ΔA734 vs. ligand concentration line was calculated. The positive control for this reaction was Trolox, an analogue of vitamin E. The decrease in A734 as a function of ligand concentration is the comparitor among the five compounds evaluated. Trolox, L1, DFO, (S)-4′-(HO)-DADMDFT and BDU (Table 3). All four of the iron chelators performed better than Trolox; DFO≈BDU>(S)-4′-(HO)-DADMDFT>L1>Trolox. Thus, all of these ligands could be expected to serve as excellent radical scavengers.

Experiment [3] in a line: Prevention of iron-mediated oxidation of ascorbate (ascorbate-mediated reduction of Fe(III)). The conditions noted are these: ascorbate 100 μM, FeCl3 30 μM, pH 7.4, ligand/Fe ratios 0-3, 40 min. The method, then:
(§1) The iron chelators were tested for their ability to diminish the iron-mediated oxidation of ascorbate by the method of Dean and Nicholson (Free Radical Res. 20, 83-101 (1994)). Briefly, a solution of freshly prepared ascorbate (100 μM) in sodium phosphate buffer (5 mM, pH 7.4) was incubated in the presence of FeCl3 (30 μM) and chelator (ligand/Fe ratios varied from 0-3) for 40 min. The A265 was read at 10 and 40 min; the ΔA265 in the presence of ligand was compared to that in its absence.
The role of chelators in either inhibition or promotion of the Fenton reaction is related to their capacity to prevent Fe(III) from being reduced to Fe(II). Fe(II) is required for the reduction of H2O2 to HO. and HO^−. The assay involves spectrophotometrically monitoring the disappearance of ascorbate at pH 7.4 in the presence of FeCl3 and chelator at several ligand/Fe ratios. Under these conditions, ascorbate is oxidized to an L-ascorbyl radical anion. This anion then disproportionates to dehydroascorbic acid and ascorbate.
as §1, with “chelators nitrilotriacetic acid (NTA), 1,2-dimethyl-3-hydroxypyridin-4-one (L1), desferrioxamine B (DFO), (S)-4′-(HO)-DADMDFT, and (S,S)-1,11-Bis[5-(4-carboxyl-4,5-dihydro-1,3-thiazol-2-yl)-2,4-dihydroxyphenyl]-4,8-dioxaundecane (BDU)” for “chelators”, “Nicholson, Free” for “Nicholson (Free”, “20:” for “20,”, “(1994).” for “(1994)).”
The measurement examines the disappearance of ascorbate. It is known that DFO, a hydroxamate chelator that forms a 1:1 complex with Fe(III) at a formation constant of approximately 10^31 M^−1, prevents ascorbate-mediated reduction of Fe(III); it serves as a positive control in the present study. Both NTA and L1 promote ascorbate-mediated reduction of Fe(III) and serve as negative controls.

In experiment [4] the test system is acetic acid-induced colitis. As to the kind of experiment: Acetic acid-induced colitis in rats, densitometric image analysis of colonic damage. The experiment is classed as in vivo. How it is done:
(§2) The ligands were administered to the rats intracolonically as a suspension or solution in distilled water (2 mL) at a dose of 650 μmol kg^−1. The drug solutions were made fresh for each experiment. ROWASA®, the pharmaceutical preparation which contains 5-ASA (2 mL, 66.7 mg mL^−1) was given at a dose of 2318 μmol kg^−1. Control rats received distilled water (2 mL), administered intracolonically.
(§3) Animal care and experimental procedures were approved by the Institutional Animal Care and Use Committee. Colitis was induced by a modification of published methods. Briefly, the rats were anesthetized with sodium pentobarbital, 55 mg kg^−1 intraperitoneally. The abdomen was shaved and prepared for surgery. A midline incision was made, and the cecum and proximal colon were exteriorized. A reversible suture was placed at the junction of the cecum and proximal colon. The colon was rinsed with saline (10 mL), and the fluid and intestinal contents were gently expressed out the rectum. A gum-based rectal plug was inserted. The compound of interest, or distilled water in the control animals (2 mL), was injected intracolonically just distal to the ligature. The cecum and proximal colon were returned to the abdominal cavity; the compound was allowed to remain in the gut for 30 min. Then, the cecum and proximal colon were reexteriorized. The rectal plug was removed, and the drug was gently expressed out of the colon. Acetic acid (4%, 2 mL) was injected into the proximal colon over a 15-20-second time period. The acid was allowed to remain in the gut until one minute had passed (i.e., 40-45 seconds after the end of the acid administration). The no acid control rats received distilled water (2 mL), which was administered in the same manner as was the acetic acid. Air (10 mL) was then injected into the proximal colon to expel the acid or water. The cecal/proximal colon ligature was removed, the gut was returned to the abdominal cavity, and the incisions were closed. The animals were allowed to recover overnight and were sacrificed 24 hr later. The entire length of the colon was removed and assessed for damage both densitometrically and biochemically.
Gross damage was quantitated using Photoshop-based image analysis (version 5.0, Adobe Systems, Mountain View, Calif., USA) on an Apple iMac computer. The Magic Wand tool in the Select menu of Photoshop was used to place the cursor on an area of obvious damage. The tolerance level of the Magic Wand tool was set at 30. The damaged areas were automatically selected by using the Similar command in the Select menu. Then, the Eyedropper tool was used to determine the range of the damage in the highlighted areas. Individual colon images were copied to a blank Photoshop page. The Magic Wand tool, with a tolerance set to 100, was used to select all of the pixels in the colon sample. Then, the Histogram tool, which generates a graph in which each vertical line represents the number of pixels associated with a brightness level, was selected in the Image menu. The Red channel was then selected; the darker (damaged areas) appear on the left side of the histogram and the lighter (normal) areas are on the right side. The cursor was then placed on the histogram, the color range determined in an earlier step was selected, and the number of pixels encompassing that range and the percent damage were quantified automatically.
Two means were employed to assess the damage to the colon in the presence and absence of ligand, computer-based image analysis and colonic MPO measurement. The densitometric method removes much of the subjectivity involved in the simple scoring approaches. A digital image of the prepared colonic tissue is taken, and a clearly damaged segment is highlighted on the screen. Once the computer identifies all other segments of the intestine with the same or greater damage, a pixel number is generated; this number makes it possible to calculate the percentage of damaged intestine.

Experiment [5] relates to Myeloperoxidase (MPO) activity in colonic tissue. As to the kind of experiment: Myeloperoxidase (MPO) assay in colonic tissue of rats with acetic acid-induced colitis. The experiment is classed as in vivo. The conditions noted are these: 650 μmol kg^−1 intracolonically 30 min before 4% acetic acid, mean ± standard deviation. How it is done:
as §2, §3
The activity of MPO was measured in colonic tissue by a modification of the method of Krawisz et al. in Gastroenterology 87, 1344-1350 (1984). Each excised colon was homogenized in 9 volumes of homogenization buffer (0.5% hexadecyltrimethylammonium bromide (HDTMA) in 50 mM sodium acetate, pH 6.0); this homogenate was centrifuged at 1200 g for 20 min at 4° C. A sample of the supernatant (1.8 mL) was transferred into a microcentrifuge tube and stored frozen at −20° C. for up to one week. Prior to assay, the thawed aliquot was centrifuged at about 10,000 g for 15 minutes at 4° C. The final supernatant (33 μL) was added to a solution of o-dianisidine HCl (0.17 mg mL^−1 in 50 mM sodium acetate, pH 6.0, made fresh daily and filtered immediately before use) (950 μL), the mixture was vortexed, and the peroxidase reaction was initiated by the addition of H2O2 to 50 mM sodium acetate, pH 6.0, made fresh daily (16.7 μL). The A470 at room temperature (ca. 23° C.) was read at 15-second intervals for 2 min. The rates were assessed graphically and are presented as change in milliabsorbance units (ΔmAU)/min per g tissue. Under these conditions, 0.1 “Unit” of purified human leukocyte myeloperoxidase (Sigma M-6908) produced a ΔA470 of about 400 mAU/min.
The biochemical measurement involves measuring the level of MPO in a sample of homogenate of the whole rat colon. When the colon is damaged by the acetic acid, there is an extravasation of neutrophils. The extent of this infiltration can serve as a quantitative marker for tissue damage. Although other leukocytes, such as eosinophils and monocytes, also contribute to the inflammatory response, their contribution is small; the majority of the cells recruited during the acute inflammatory response are neutrophils. […]

A further experiment relates to iron-loaded hepatocytes. The conditions noted are these: cited from earlier work.
[6] abbreviates: Table 1, A734, six-minute reaction, pH 7.4, 1.25 to 15 μM.

For `COc1ccc(C2=N[C@@H](C(=O)O)CS2)c(O)c1` [4′-(CH3O)-DADMDFT, 4′-methoxydesazadesmethyldesferrithiocin], the “Slope × 10^3 OD units/μM (ABTS radical cation quenching)” value (shortened to “Slope × 10^3 OD units/μM”) in experiment [1] was −33 × 10^3 OD units/μM. Moreover, the “radical trapping compared with Trolox (in words)” value in experiment [2] (method of Example 6) is on record as “as effective as Trolox”. Moreover, the “effect on ascorbate-mediated reduction of Fe(III) (in words)” value in experiment [3] is recorded as “slowed Fe(III) reduction considerably”.
Turning to `C[C@]1(C(=O)O)CSC(c2ccc(O)cc2O)=N1` [4′-(HO)-DADFT], the “Slope × 10^3 OD units/μM” value in experiment [1] is on record as −106 × 10^3 OD units/μM; in experiment [2] (setting [6]), −105.6 × 10^3 OD units/μM. Besides, the “Damage (%)” value in experiment [4] (650 μmol kg^−1 intracolonically 30 min before 4% acetic acid, mean ± standard deviation) is 62 ± 10%. In experiment [4] (intracolonic, image analysis and MPO assay), the “protection against acetic acid-induced colonic damage (in words)” value was “did not protect”. Also, in experiment [5], the MPO activity is on record as 64192 ± 30802 mAU min^−1g of colonic tissue^−1.
As to `Cc1c(O)c(=O)ccn1C` [Compound L1, 1,2-Dimethyl-3-hydroxypyridin-4-one, reference compound], the “effect on iron-mediated oxidative DNA damage (in words)” value with iron-loaded hepatocytes is recorded as “potentiated iron-mediated oxidative DNA damage”. The “Slope × 10^3 OD units/μM” value in experiment [2] (setting [6]) was −52.9 × 10^3 OD units/μM; in experiment [2] (Table 3, A734, 6-min reaction, values marked b are the inventors' unpublished results), −53^b × 10^3 OD units/μM. Moreover, the “effect on ascorbate-mediated reduction of Fe(III) (in words)” value in experiment [3] was “promoted the reaction; also recorded: promoted ascorbate-mediated reduction of Fe(III)”; in experiment [3] (listed as 1,2-dimethyl-3-hydroxypyridin-4-one), “increased the rate of iron(III) reduction”.
In the case of `C[C@]1(C(=O)O)CSC(c2ncccc2O)=N1` [DFT, desferrithiocin], in the experiment on iron-loaded hepatocytes, the “effect on iron-mediated oxidative DNA damage (in words)” value is given as “prevented damage”. Moreover, the “Slope × 10^3 OD units/μM” value in experiment [2] (setting [6]) is given as −0.9 × 10^3 OD units/μM.
